Test results taken from publication PMC9580147, “A novel C-type lectin from Trichinella spiralis mediates larval invasion of host intestinal epithelial cells” (Veterinary Research, 2022).

Target: T1, rTsCTL (TsCTL, Trichinella spiralis type C lectin) (Trichinella spiralis, UniProt A0A0V1BZI5)
T1 construct: gene T01_9679; N-terminal His-tag (pQE-80L), E. coli BL21 (DE3), Ni-NTA purified; 208 aa full length, 24 kDa; C-type lectin domain residues 24-156
Assay: inhibition of haemagglutination of mouse erythrocytes by rTsCTL
Assay type: biochemical
Conditions: rTsCTL 100 ug/mL; 2% mouse erythrocytes; room temperature, 1 h; Ca2+-dependent lectin; TBS pH 8.0; presumed carbohydrate recognition domain

T1 sequence (A0A0V1BZI5 entry or part of it): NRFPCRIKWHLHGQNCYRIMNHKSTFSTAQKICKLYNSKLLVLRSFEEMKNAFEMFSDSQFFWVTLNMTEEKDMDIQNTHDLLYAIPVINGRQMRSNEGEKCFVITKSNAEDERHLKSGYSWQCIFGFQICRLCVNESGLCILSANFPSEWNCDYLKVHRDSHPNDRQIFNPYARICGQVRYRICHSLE

`OC[C@H]1OC(O)[C@@H](O)[C@@H](O)[C@@H]1O` (stereo partly shown) [mannose] gave a minimum inhibitory dose of 100 mM.
